Each structure is given as a SMILES string. pIC50: −log10 of the molar value.

In patent US11566007B2, “Ras inhibitors” (Revolution Medicines, Inc., priority 2019, dated 2023) one finds IC50 data, which are given here for 7 compounds.

Common to all, as to type: biochemical
In experiment [1] the target is KRAS WT (Homo sapiens (Human), UniProt P01116+P62937). Put plainly: Ras-Raf (BRAF RBD) disruption / FRET / MOA assay, KRAS WT. Conditions: read-out: IC50* KRAS WT FRET data. The method in brief:
(§1)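 A 10-point, 3-fold dilution series topping at 30 μM final was incubated 3 h at 25° C with the Ras/cyclophilin A/BRAF RBD mixture.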

In experiment [2] the target is KRAS G13D (Homo sapiens (Human), UniProt P01116+P62937, G13D). Put plainly: Ras-Raf (BRAF RBD) disruption / FRET / MOA assay, KRAS G13D. Conditions: read-out: IC50* KRAS G13D FRET data. The method in brief: as §1
Chain of KRAS G13D (P01116-2 other isoform, or with tags, fused parts or gaps G13D): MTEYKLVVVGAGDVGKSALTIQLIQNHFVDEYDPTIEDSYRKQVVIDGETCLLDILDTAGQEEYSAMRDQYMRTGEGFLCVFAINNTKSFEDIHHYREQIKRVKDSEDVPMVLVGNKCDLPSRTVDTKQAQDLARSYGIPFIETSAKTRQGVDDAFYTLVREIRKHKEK
Chain of KRAS G13D (P62937 whole entry): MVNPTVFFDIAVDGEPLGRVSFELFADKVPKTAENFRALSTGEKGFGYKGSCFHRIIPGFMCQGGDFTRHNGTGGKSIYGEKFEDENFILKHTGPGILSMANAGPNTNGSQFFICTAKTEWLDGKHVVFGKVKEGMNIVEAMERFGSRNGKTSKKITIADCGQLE
For experiment [3], the target named is NRAS Q61R (Homo sapiens (Human), UniProt P01111+P62937, Q61R). Briefly: Ras-Raf (BRAF RBD) disruption / FRET / MOA assay, NRAS Q61R. Conditions: NRAS Q61R; Ras-Raf disruption/FRET/MOA assay; read-out: IC50* NRAS Q61R FRET data. The method in brief: (§2)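 Compounds (30 μM top final, 10-point 3-fold dilutions) incubated 3 h at 25° C with nucleotide-loaded Ras, cyclophilin A and BRAF RBD. Detection with 10 nM anti-His Eu-W1024 and 50 nM anti-GST allophycocyanin over another 1.5 h. Lowered TR-FRET ratio relative to DMSO wells gives IC50.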
Chain of NRAS Q61R (P01111 whole entry Q61R): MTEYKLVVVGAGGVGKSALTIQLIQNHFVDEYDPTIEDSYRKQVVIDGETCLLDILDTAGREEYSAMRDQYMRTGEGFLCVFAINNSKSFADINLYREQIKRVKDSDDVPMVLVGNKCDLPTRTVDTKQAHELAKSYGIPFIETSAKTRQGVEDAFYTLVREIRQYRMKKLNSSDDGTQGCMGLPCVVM
Chain of NRAS Q61R (P62937 whole entry): as the sequence (P62937 whole entry) above

In experiment [4] the target is NRAS Q61K (Homo sapiens (Human), UniProt P01111+P62937, Q61K). Put plainly: Ras-Raf (BRAF RBD) disruption / FRET / MOA assay, NRAS Q61K. As to conditions: NRAS Q61K; Ras-Raf disruption/FRET/MOA assay; read-out: IC50* NRAS Q61K FRET data. An outline of the steps:
as §2

Experiment [5] deals with KRAS Q61H (Homo sapiens (Human), UniProt P01116+P62937, Q61H). Briefly: Ras-Raf (BRAF RBD) disruption / FRET / MOA assay, KRAS Q61H. Conditions: Ras-Raf disruption/FRET/MOA assay; class symbols; read-out: KRAS Q61H FRET data IC50. An outline of the steps: as §2
Chain of KRAS Q61H (P01116-2 other isoform, or with tags, fused parts or gaps Q61H): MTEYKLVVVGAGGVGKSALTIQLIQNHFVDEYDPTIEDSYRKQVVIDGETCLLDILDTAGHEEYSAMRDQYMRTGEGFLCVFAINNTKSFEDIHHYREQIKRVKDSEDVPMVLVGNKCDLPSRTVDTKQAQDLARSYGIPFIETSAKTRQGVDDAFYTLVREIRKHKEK
Chain of KRAS Q61H (P62937 whole entry): as the sequence (P62937 whole entry) above
Experiment [6] concerns the target KRAS G12D (Homo sapiens (Human), UniProt P01116+P62937, G12D). Put plainly: Ras-Raf (BRAF RBD) disruption / FRET / MOA assay, KRAS G12D. As to conditions: Ras-Raf disruption/FRET/MOA assay; class symbols; read-out: KRAS G12D FRET data IC50. The method in brief:
as §1

Experiment [7] has as its target K-Ras G12C (Homo sapiens (Human), UniProt P01116+P62937, G12C). Briefly: Ras-Raf (BRAF RBD) disruption / FRET / MOA assay, KRAS G12C. As to conditions: KRAS G12C; Ras-Raf disruption/FRET/MOA assay; read-out: IC50* KRAS G12C FRET data. An outline of the steps: as §1

Chain of NRAS Q61K (P01111 whole entry Q61K): as the sequence (P01111 whole entry Q61R) above, with R61K counted along it
Chain of NRAS Q61K (P62937 whole entry): as the sequence (P62937 whole entry) above
Chain of K-Ras G12C (P01116-2 other isoform, or with tags, fused parts or gaps G12C): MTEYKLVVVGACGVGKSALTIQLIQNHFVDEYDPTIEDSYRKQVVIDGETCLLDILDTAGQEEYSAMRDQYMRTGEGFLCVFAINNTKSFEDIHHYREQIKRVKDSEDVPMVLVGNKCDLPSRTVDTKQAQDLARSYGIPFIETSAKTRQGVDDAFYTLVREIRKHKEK
Chain of K-Ras G12C (P62937 whole entry): as the sequence (P62937 whole entry) above
Chain of KRAS WT (P01116-2 other isoform, or with tags, fused parts or gaps): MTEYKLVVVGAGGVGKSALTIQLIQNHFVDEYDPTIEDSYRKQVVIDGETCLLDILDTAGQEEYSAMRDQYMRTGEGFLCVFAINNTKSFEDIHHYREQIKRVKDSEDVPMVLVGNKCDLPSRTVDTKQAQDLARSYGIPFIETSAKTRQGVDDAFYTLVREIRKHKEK
Chain of KRAS WT (P62937 whole entry): as the sequence (P62937 whole entry) above
Chain of KRAS G12D (P01116-2 other isoform, or with tags, fused parts or gaps G12D): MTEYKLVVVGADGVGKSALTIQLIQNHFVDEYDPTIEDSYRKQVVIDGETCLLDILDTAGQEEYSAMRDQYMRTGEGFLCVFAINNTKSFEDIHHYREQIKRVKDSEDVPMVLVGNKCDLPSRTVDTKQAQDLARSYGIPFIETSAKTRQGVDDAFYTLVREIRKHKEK
Chain of KRAS G12D (P62937 whole entry): as the sequence (P62937 whole entry) above

`C=CC(=O)N1CCC[C@@H]2CN(C(=O)N(C)[C@H](C(=O)N[C@H]3Cc4nc(cs4)-c4ccc5c(c4)c(c(-c4cccnc4[C@H](C)OC)n5CC)CC(C)(C)COC(=O)[C@@H]4CCCN(N4)C3=O)C(C)C)C[C@@H]21` (atropisomer, axis not shown) [Example A619]: the pIC50 in experiment [1] is 5.00 to 6.00; in experiment [2], 5.00 to 6.00; in experiment [3] it was 6.00 to 7.00; in experiment [4] it was 6.00 to 7.00; in experiment [5] it was 6.00 to 7.00; in experiment [6], 5.00 to 6.00. Besides, the pIC50 in experiment [7] is 6.00 to 7.00.

Take `C=CC(=O)N1CC2(CCN(C(=O)N(C)[C@H](C(=O)N[C@H]3Cc4nc(cs4)-c4ccc5c(c4)c(c(-c4cccnc4[C@H](C)OC)n5CC)CC(C)(C)COC(=O)[C@@H]4CCCN(N4)C3=O)C(C)C)CC2)C1` (atropisomer, axis not shown) [Example A394]: the pIC50 in experiment [1] was 6.00 to 7.00; in experiment [2], 6.00 to 7.00; in experiment [3], 6.00 to 7.00; in experiment [4] it was 7.00 to 8.00; in experiment [5] it was 7.00 to 8.00; in experiment [6] it was 6.00 to 7.00. Besides, in experiment [7], the negative-log IC50 (pIC50) is 7.00 to 8.00.

On to `C=CC(=O)N1CC(OC[C@H](C(=O)N[C@H]2Cc3cc(cc(C(F)F)c3)-c3ccc4c(c3)c(c(-c3cccnc3[C@H](C)OC)n4CC)CC(C)(C)COC(=O)[C@@H]3CCCN(N3)C2=O)C(C)C)C1` (atropisomer, axis not shown) [Example A345], for which the pIC50 in experiment [1] is < 5.00; in experiment [2] it was < 5.00; in experiment [3], < 5.00; in experiment [4], < 5.00; in experiment [5], 5.00 to 6.00; in experiment [6], < 5.00. Further, the negative-log IC50 (pIC50) in experiment [7] is 5.00 to 6.00.

As to `CCn1c(-c2cccnc2[C@H](C)OC)c2c3cc(ccc31)N1CCC[C@@H](C[C@H](NC(=O)[C@@H](COC3CN(C(=O)C#CC(C)(C)N(C)C)C3)C(C)C)C(=O)N3CCC[C@H](N3)C(=O)OCC(C)(C)C2)C1` (atropisomer, axis not shown) [Example A715, (2R)-2-(((1-(4-(dimethylamino)-4-methylpent-2-ynoyl)azetidin-3-yl)oxy)methyl)-N-((2^3S,6^3S,4S)-1^1-ethyl-1^2-(2-((S)-1-methoxyethyl)pyridin-3-yl)-10,10-dimethyl-5,7-dioxo-6^1,6^2,6^3,6^4,6^5,6^6-hexahydro-1^1H-8-oxa-1(5,3)-indola-6(1,3)-pyridazina-2(1,3)-piperidinacycloundecaphane-4-yl)-3-methylbutanamide], the negative logarithm of the IC50 (pIC50) in experiment [1], in experiment [2], in experiment [3], in experiment [4], in experiment [5] and in experiment [6] was < 5.00 in each case. Also, the pIC50 in experiment [7] is 7.00 to 8.00.

In the case of `C=CC(=O)N1CC2(COCCN2C(=O)N(C)[C@H](C(=O)N[C@H]2Cc3nc(cs3)-c3ccc4c(c3)c(c(-c3cccnc3[C@H](C)OC)n4CC)CC(C)(C)COC(=O)[C@@H]3CCCN(N3)C2=O)C(C)C)C1` (atropisomer, axis not shown) [Example A352], the negative-log IC50 (pIC50) is 5.00 to 6.00 in experiment [1]; < 5.00 in experiment [2]; 5.00 to 6.00 in experiment [3]; 5.00 to 6.00 in experiment [4]; 5.00 to 6.00 in experiment [5]; < 5.00 in experiment [6]. The pIC50 in experiment [7] was 7.00 to 8.00.

On to `CO[C@@H](C)c1ncccc1-c1c2c3cc(ccc3n1CC(F)(F)F)-c1nc(co1)C[C@H](NC(=O)[C@@H](COC1CN(C(=O)C#CC(C)(C)N(C)C)C1)C(C)C)C(=O)N1CCC[C@H](N1)C(=O)OCC(C)(C)C2` (atropisomer, axis not shown) [Example A674], for which the negative-log IC50 (pIC50) in experiment [1] is < 5.00; in experiment [2], < 5.00; in experiment [3], < 5.00; in experiment [4] it was < 5.00; in experiment [5], 5.00 to 6.00; in experiment [6], < 5.00. For the same compound, in experiment [7], the negative-log IC50 (pIC50) is 7.00 to 8.00.

For the compound `C=CC(=O)N1CC[C@H](C(=O)N(C)[C@H](C(=O)N[C@H]2Cc3cc(C)cc(c3)-c3ccc4c(c3)c(c(-c3cccnc3[C@H](C)OC)n4CC)CC(C)(C)COC(=O)[C@@H]3CCCN(N3)C2=O)C(C)C)C1` (atropisomer, axis not shown) [Example A498], the pIC50 in experiment [1] is 5.00 to 6.00; in experiment [2], < 5.00; in experiment [3], 5.00 to 6.00; in experiment [4] it was 5.00 to 6.00; in experiment [5], 5.00 to 6.00; in experiment [6], < 5.00. Moreover, in experiment [7], the pIC50 was 6.00 to 7.00.
